Data reported in PubChem BioAssay (NCI).
Values joined by “and” are separate entries in the source; they are usually repeats but may differ in a detail not shown here. Equal values may be shown once.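 These data come from cells grown in 96-well plates and exposed to compound for 48 hours at five concentrations. GI50: concentration for 50% inhibition of growth. TGI denotes the concentration required for complete inhibition of growth.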

How the values were obtained:
Experiment in all cases: NCI tumour cell line growth inhibition, 48 h
LXFL 529 NSCLC = system: LXFL 529 NSCLC
OVCAR-4 ovarian = system: OVCAR-4 ovarian
OVCAR-8 ovarian = system: OVCAR-8 ovarian
KM12 colon = system: KM12 colon
U251 CNS = system: U251 CNS
DLD-1 colon = system: DLD-1 colon
SW-620 colon = system: SW-620 colon
HOP-92 NSCLC = system: HOP-92 NSCLC
K-562 leukemia = system: K-562 leukemia
UACC-62 melanoma = system: UACC-62 melanoma

Row | SMILES | TGI (LXFL 529 NSCLC) [µM] | TGI (OVCAR-4 ovarian) [µM] | TGI (OVCAR-8 ovarian) | TGI (KM12 colon) [µM] | TGI (U251 CNS) | TGI (DLD-1 colon) [µM] | TGI (SW-620 colon) [µM] | TGI (HOP-92 NSCLC) | TGI (K-562 leukemia) [µM] | TGI (UACC-62 melanoma) | GI50 (LXFL 529 NSCLC) | GI50 (OVCAR-4 ovarian) [µM] | GI50 (OVCAR-8 ovarian) | GI50 (KM12 colon) [µM] | GI50 (U251 CNS) | GI50 (DLD-1 colon) [µM] | GI50 (SW-620 colon) [µM] | GI50 (HOP-92 NSCLC) | GI50 (K-562 leukemia) | GI50 (UACC-62 melanoma)
1 | NC1=NN(c2ccccc2)C(=O)C1C(=O)C(=O)Nc1cccc(C(F)(F)F)c1 (centres undefined) | > 100 | > 100 | > 100 µM | > 100 | > 100 µM | > 100 | > 100 | > 100 µM | > 100 | > 100 µM |  |  |  |  |  |  |  |  |  | 
2 | N=c1oc2cc(O)c(O)cc2cc1C(N)=O | > 100 | > 100 | > 100 µM | > 100 | > 100 µM | > 100 | > 100 | > 100 µM | > 100 | > 100 µM |  |  |  |  |  |  |  |  |  | 
3 | Cc1ccc(C2=NN(C)COC2C(F)(F)F)cc1 (centres undefined) | > 100 | > 100 | > 100 µM | > 100 | > 100 µM | > 100 | > 100 | > 100 µM | > 100 | > 100 µM |  |  |  |  |  |  |  |  |  | 
4 | O=C(/C=C\c1cccc2ccccc12)c1ccc(Br)cc1 | 32.8 | 35.5 | 33 µM | 28.3 | 29.6 µM | 38.4 | 24.4 | 85.6 µM | 44.2 | 29.3 µM |  |  |  |  |  |  |  |  |  | 
5 | COc1ccc(/C(Cl)=C(\C=O)c2cc(OC)c(OC)c(OC)c2)cc1OC | > 100 | > 100 | > 63.5 µM | 73.8 | > 61.2 µM |  | > 100 | > 100 µM | > 100 | > 100 µM |  |  |  |  |  |  |  |  |  | 
6 | CCOC(=O)C(=O)Nc1ccc([N+](=O)[O-])cc1C#N | > 100 | > 100 | > 100 µM | > 100 | > 100 µM | > 100 | > 100 | > 100 µM | > 100 | > 100 µM |  |  |  |  |  |  |  |  |  | 
7 | CCC[CH2][Sn]([CH2]CCC)([O]C(=O)c1cccc(F)c1F)[O][Sn]([CH2]CCC)([CH2]CCC)[O]C(=O)c1cccc(F)c1F | 0.157 | 1.28 | 1.16 µM | 2.22 | 0.449 µM | 0.744 | 0.239 | 0.399 µM | > 100 | 0.423 µM | 0.0222 µM | 0.459 | 0.285 µM | 0.857 | 147 nM | 0.182 | 0.103 | 130 nM | 0.0371 µM | 0.173 µM
8 | Cc1ccc(NC(=O)/C(=N/NC(=O)CC#N)C2C(=O)N(c3ccccc3)N=C2N)cc1C (centres undefined) | > 100 | > 100 | > 100 µM | > 100 | > 100 µM | > 100 | > 100 | > 100 µM | > 100 | > 100 µM |  |  |  |  |  |  |  |  |  | 
9 | CC1=Cc2cc3[n-]c(cc4nc(cc5[n-]c(cc1n2)c(C)c5CCC(=O)O)C(CCC(=O)O)=C4C)cc3C.[Cu+2] | > 100 | > 100 | > 1 µM and 54.7 µM | > 100 | > 1 µM and 23.2 µM | > 93 | > 79.6 | > 1 µM and 34.3 µM | > 60.6 | > 1 µM and 15.8 µM | > 1 µM and 12.4 µM | > 100 | > 1 µM and 19.6 µM | > 92.2 | > 1000 nM and 9850 nM | > 42.6 | > 47.7 | > 1000 nM and 13600 nM | > 1 µM and 13.6 µM | > 1 µM and 6.04 µM
10 | CC1(C)OC(=O)C=C(O)O1.CC1(C)OC(=O)C=C(O)O1.CCO.Oc1ccc2c(c1)CCC2.[Ti] | > 100 | > 100 | > 100 µM | > 100 |  | > 100 | > 100 |  | > 100 | > 100 µM | > 100 µM | > 100 | > 100 µM | > 100 |  | > 100 | > 100 |  | > 100 µM | > 100 µM
11 | CC1CC(C)C(=O)C(C(=O)CC2CC(=O)NC2=O)C1 (centres undefined) | > 100 | > 100 | > 100 µM | > 100 | > 100 µM | > 100 | > 100 | > 100 µM | > 100 | > 100 µM |  |  |  |  |  |  |  |  |  | 
12 | COc1ccc(C(=O)O)c2c(=O)c3ccccc3[nH]c12 | > 100 | > 100 | > 100 µM | > 100 | > 100 µM |  | > 100 | > 100 µM | > 100 | > 100 µM |  |  |  |  |  |  |  |  |  | 
13 | O=C(Nc1ccc(N=Nc2ccccc2)cc1)Sc1ccccc1C(=O)O | > 100 | > 100 | > 100 µM | > 100 | > 100 µM |  | > 100 |  | > 100 | > 100 µM |  |  |  |  |  |  |  |  |  | 
14 | CCC12CC[C@H](C#N)N3CCc4c(n(c5ccccc45)C(=O)C1)C32 (some centres undefined) | 33.7 | 31.7 | 57.5 µM | 22.5 | 29.8 µM | 43.8 | 51.7 |  | 35 | 33.4 µM |  |  |  |  |  |  |  |  |  | 
15 | COC1=CC(C)C2C[C@H]3O[C@H](O)C[C@H]4C(C)C(=O)C(O)C([C@@]2(C)C1=O)[C@@]34C (some centres undefined) | > 100 |  | > 100 µM | > 100 |  | > 100 | > 100 | > 100 µM | > 100 | > 100 µM |  |  |  |  |  |  |  |  |  | 
16 | O=C1CC(c2ccccc2)NCN1 (centres undefined) | > 100 | > 100 | > 100 µM | > 100 | > 100 µM | > 100 | > 100 |  | > 100 | > 100 µM |  |  |  |  |  |  |  |  |  | 
17 | NC(=S)N/N=C1\C(=O)N(c2cccc([N+](=O)[O-])c2)C(=O)C1C(=O)Nc1cccc([N+](=O)[O-])c1 (centres undefined) | > 100 | > 100 | > 100 µM |  | > 100 µM | > 100 | > 100 | > 100 µM | > 100 | > 100 µM |  |  |  |  |  |  |  |  |  | 
18 | N#CC(c1ccc(Cl)cc1)c1cccc(Cl)n1 (centres undefined) | > 100 | > 100 | > 100 µM | > 100 | > 100 µM | > 100 | > 100 | 74.8 µM | > 100 | > 100 µM |  |  |  |  |  |  |  |  |  | 
19 | c1cc2[se][se]c3c4cccc5[se][se]c(c(c1)c23)c54 | > 100 | > 100 | > 100 µM | > 100 | > 100 µM | > 100 | > 100 | > 100 µM | > 100 | > 100 µM |  |  |  |  |  |  |  |  |  | 
20 | C/C=C/CP(=O)(c1ccccc1)c1ccccc1 | > 100 | > 100 | > 100 µM | > 100 | > 100 µM | > 100 | > 100 |  | > 100 | > 100 µM |  |  |  |  |  |  |  |  |  | 
21 | Cc1nc(Nc2ccccc2)sc1C(=O)NNC(N)=O | > 100 | > 100 | > 100 µM | > 100 | > 100 µM | > 100 | > 100 | > 100 µM | > 100 | > 100 µM |  |  |  |  |  |  |  |  |  | 
22 | O[C@H]1[C@H]2[C@H](O)CCCN2C[C@H]1O | > 100 | > 100 | > 100 µM | > 100 | > 100 µM | > 100 | > 100 | > 100 µM |  | > 100 µM |  |  |  |  |  |  |  |  |  | 
23 | CC(=O)Oc1cc2c(=O)oc3c(OC(C)=O)c(OC(C)=O)c(OC(C)=O)c4c(=O)oc(c1OC(C)=O)c2c34 | > 100 | > 100 | > 100 µM | > 100 | > 100 µM | > 100 | > 100 | 96.9 µM | > 100 | > 100 µM |  |  |  |  |  |  |  |  |  | 
24 | CO/C=C/c1cc2c(cc1C(OC)OC)OCO2 |  | > 100 | > 100 µM | > 100 | > 100 µM | > 100 | > 100 | > 100 µM | > 100 | 69.1 µM |  |  |  |  |  |  |  |  |  | 
25 | O=C1C(Br)=C(c2ccccc2)C(c2ccccc2)=C1c1ccccc1 | 2.84 | 4.98 | 4.46 µM | 18.5 | 9.83 µM | 3.66 | 3.26 | 3.84 µM | 9.93 | 5.73 µM |  |  |  |  |  |  |  |  |  | 
